These results are taken from paper PMC10095932 (Molecules, 2023).

Entries after “also recorded” stand apart in the source; their conditions may differ. Where two headings read alike, the source gives them in different places. Where a SMILES comes first, the peptide text is derived from it. Bridges are numbered along the chain shown (N, C = ends). Some results are limits rather than exact numbers.

For data set [1] the following is noted: cited from earlier work. The text has this: In humans, the NP system consists primarily of three main peptides, A-type or atrial natriuretic peptide (ANP), B-type or brain natriuretic peptide (BNP), and C-type natriuretic peptide (CNP). Distinct variations in the expression levels of each NP correlates strongly with normal physiological and disease conditions. Due to their importance in cardio-renal diseases these peptides have been extensively studied. Structurally, the NP family is characterized by a 17-residue ring structure with a highly conserved internal sequence and variable N- and C-terminal regions. W ...

The subject of data set [2] is Neutral endopeptidase 24.11 (NEP). Kind of data set: 500 ng NEP (activity 400 pmol min^−1 μg^−1) in 100 mM Tris.HCl and 150 mM NaCl (pH 7.4). Particulars: 37 °C, up to 24 h.
Data set [3] has as its target T1, human NPR-A (Homo sapiens, UniProt P16066).
T1 construct: expressed in transfected cells; host or cells: HEK 293 cells, transient, Lipofectamine 2000
T1 sequence (P16066 33-1061): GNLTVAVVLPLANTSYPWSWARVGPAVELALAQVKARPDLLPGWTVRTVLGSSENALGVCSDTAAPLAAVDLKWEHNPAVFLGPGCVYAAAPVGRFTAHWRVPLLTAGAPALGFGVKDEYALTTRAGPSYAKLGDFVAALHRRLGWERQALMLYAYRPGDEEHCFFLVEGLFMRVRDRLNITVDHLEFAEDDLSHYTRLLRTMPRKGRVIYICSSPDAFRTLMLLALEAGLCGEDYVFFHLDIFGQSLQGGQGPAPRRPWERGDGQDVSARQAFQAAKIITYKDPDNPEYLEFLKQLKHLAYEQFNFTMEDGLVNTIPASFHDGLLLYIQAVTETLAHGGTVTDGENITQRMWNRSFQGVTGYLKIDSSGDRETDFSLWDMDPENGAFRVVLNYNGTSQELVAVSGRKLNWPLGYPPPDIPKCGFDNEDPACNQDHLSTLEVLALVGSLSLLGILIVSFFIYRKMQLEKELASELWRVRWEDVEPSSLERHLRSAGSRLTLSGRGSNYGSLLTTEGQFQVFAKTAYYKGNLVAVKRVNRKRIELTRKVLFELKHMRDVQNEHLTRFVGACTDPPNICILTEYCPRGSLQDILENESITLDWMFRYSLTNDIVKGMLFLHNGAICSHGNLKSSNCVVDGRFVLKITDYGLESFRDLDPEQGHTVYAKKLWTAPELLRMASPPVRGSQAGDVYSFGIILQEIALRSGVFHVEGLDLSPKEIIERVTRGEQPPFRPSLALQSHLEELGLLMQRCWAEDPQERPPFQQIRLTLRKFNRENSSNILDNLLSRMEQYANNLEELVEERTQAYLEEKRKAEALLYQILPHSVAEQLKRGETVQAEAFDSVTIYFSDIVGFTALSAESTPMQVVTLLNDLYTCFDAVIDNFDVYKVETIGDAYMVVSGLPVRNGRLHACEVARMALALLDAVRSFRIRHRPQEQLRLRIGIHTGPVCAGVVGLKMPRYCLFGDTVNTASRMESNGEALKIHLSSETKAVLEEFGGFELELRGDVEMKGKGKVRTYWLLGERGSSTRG
Put plainly: cGMP ALPHAscreen, cGMP production in HEK 293 cells transiently overexpressing hNPR-A. Particulars: HEK 293 cells overexpressing hNPR-A. Type of data set: cell-based. Here is the method: (§1) Cells were cultured at 5% CO2 and 37 °C. HEK 293 cells were cultured in high glucose DMEM (Gibco, Carlsbad, CA, USA) supplemented with 10% FBS, and 1% penicillin/streptomycin. HEK 293 cells were seeded in media lacking penicillin/streptomycin 24 to 48 h pre-transfection. PC12 cells were cultured in high glucose DMEM (Gibco) supplemented with 10% FBS and 1% penicillin/streptomycin.
HEK 293 cells were transfected using the lipofectamine 2000 transfection protocol (Invitrogen). Cells (95% confluence) were transfected with 45% pcDNA3.1/hNPR-A, 45% pcDNA3.1, and 10% pEGFP-NI to the optimal DNA concentration specified in the protocol. The co-transfection with pEGFP-NI plasmid allowed the determination of the transfection efficiency. This was assessed by the estimation of the number of GFP-expressing cells using an Olympus IX70 inverted fluorescence microscope. Transfected cells were used for assay purposes within 24 h.
(§2) The cGMP ALPHAscreen was performed using the ALPHAscreen Protein A detection kit and the biotinylated cGMP supplement (Perkin Elmer, Waltham, MA, USA) with rabbit anti-cGMP polyclonal antibody (Biovision, Mountain View, CA, USA). Cells were detached from the flask and the resulting pellet was resuspended in stimulation buffer (HBSS supplemented with 0.1% w/v BSA and 1 mM IBMX at 37 °C). Cells were added to a white 384-well Optiplate (Perkin Elmer, Waltham, USA) to 30,000 cells per well for HEK 293 cells and 10,000 cells per well for PC12 cells. Cells were incubated with different concentrations of test peptides (concentration range of 1 × 10^−5 to 1 × 10^−11 M in stimulation buffer) at 37 °C for 30 min. Cells were lysed with lysis buffer (1 M HEPES, 0.3% Tween-20, 1% BSA in H2O, pH 7.4). Then 5 μL acceptor-bead mix was added to each well under subdued lighting conditions, followed by 5 μL of donor-bead mix. Plates were incubated for ~12 h, slowly shaking at room temperature. After incubation, the ALPHAscreen signal was measured using an EnVision plate reader (Perkin Elmer). The standard curve consisted of cGMP in a concentration range of 1 × 10^−6 to 1 × 10^−12 M. All data points were acquired in triplicate and were analyzed using GraphPad Prism 5.0 software (GraphPad Software, Inc., San Diego, CA, USA).

The target of data set [4] is T2, rat NPR-A (Rattus norvegicus, UniProt P18910).
T2 construct: endogenous in cells; host or cells: rat PC12 cells
T2 sequence (P18910 29-1057): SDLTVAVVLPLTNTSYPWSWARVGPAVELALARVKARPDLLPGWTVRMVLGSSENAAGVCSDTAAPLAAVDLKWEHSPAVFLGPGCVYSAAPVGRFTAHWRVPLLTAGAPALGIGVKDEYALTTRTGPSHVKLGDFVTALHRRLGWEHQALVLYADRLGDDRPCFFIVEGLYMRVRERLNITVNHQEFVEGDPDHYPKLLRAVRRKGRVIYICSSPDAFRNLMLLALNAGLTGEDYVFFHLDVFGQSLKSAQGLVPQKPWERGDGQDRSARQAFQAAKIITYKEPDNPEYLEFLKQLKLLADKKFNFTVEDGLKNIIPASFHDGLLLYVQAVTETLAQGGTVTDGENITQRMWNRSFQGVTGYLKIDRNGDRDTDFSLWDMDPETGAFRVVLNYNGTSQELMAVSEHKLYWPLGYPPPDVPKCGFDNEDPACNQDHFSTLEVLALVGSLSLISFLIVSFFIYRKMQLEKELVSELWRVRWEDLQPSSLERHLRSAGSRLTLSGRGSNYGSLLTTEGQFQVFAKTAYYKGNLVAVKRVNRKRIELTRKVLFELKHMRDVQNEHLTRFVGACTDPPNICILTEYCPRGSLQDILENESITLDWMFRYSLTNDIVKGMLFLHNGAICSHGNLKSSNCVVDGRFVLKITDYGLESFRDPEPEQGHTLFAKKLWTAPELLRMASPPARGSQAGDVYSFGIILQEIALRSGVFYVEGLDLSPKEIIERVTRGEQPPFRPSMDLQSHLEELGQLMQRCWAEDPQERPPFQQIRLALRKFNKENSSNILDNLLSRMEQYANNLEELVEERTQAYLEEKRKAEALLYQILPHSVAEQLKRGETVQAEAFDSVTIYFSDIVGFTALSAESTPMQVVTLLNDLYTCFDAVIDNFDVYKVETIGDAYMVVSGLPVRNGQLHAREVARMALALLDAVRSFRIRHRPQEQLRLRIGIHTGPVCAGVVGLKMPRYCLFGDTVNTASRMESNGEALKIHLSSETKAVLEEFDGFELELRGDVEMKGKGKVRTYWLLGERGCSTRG
Put plainly: cGMP ALPHAscreen, cGMP production in PC12 cells. Type of data set: cell-based. Conditions: PC12 cells, cGMP ALPHAscreen. Here is the method:
NP activity can be determined by the effectiveness of the peptide to elicit cGMP production through NPR-A. The cGMP ALPHAscreen evaluates the ability of peptides to stimulate cGMP production in cells through a non-radioactive, homogenous, proximity assay which encompasses […]. […] In order to evaluate the potency of TNPa-e at rNPR-A, TNPa-e were evaluated using the cGMP ALPHAscreen in rat PC12 cells.
as §1, §2

`CC[C@H](C)[C@@H]1NC(=O)[C@H](CCCNC(=N)N)NC(=O)[C@H](CC(=O)O)NC(=O)[C@H](CCSC)NC(=O)[C@H](CCCNC(=N)N)NC(=O)CNC(=O)CNC(=O)[C@H](Cc2ccccc2)NC(=O)[C@@H](NC(=O)[C@H](CO)NC(=O)[C@H](CO)NC(=O)[C@H](CCCNC(=N)N)NC(=O)[C@H](CCCNC(=N)N)NC(=O)[C@H](CC(C)C)NC(=O)[C@@H](N)CO)CSSC[C@@H](C(=O)N[C@@H](CC(N)=O)C(=O)N[C@@H](CO)C(=O)N[C@@H](Cc2ccccc2)C(=O)N[C@@H](CCCNC(=N)N)C(=O)N[C@@H](Cc2ccc(O)cc2)C(=O)O)NC(=O)CNC(=O)[C@H](CC(C)C)NC(=O)CNC(=O)[C@H](CO)NC(=O)[C@H](CCC(N)=O)NC(=O)[C@H](C)NC(=O)CNC1=O` [hANP, human atrial natriuretic peptide]: the half-life in plasma in data set [1] is given as 3 min.
For the compound SDSKIGNGCFGFPLDRIGSVSGLGCNRIMQNPPKKFSGE, in data set [2], the cleaved bond entry is “Lys35-Phe36, major, after 24 h; also recorded: Cys9-Phe10, major, after 24 h; also recorded: Arg27-Ile28, major, after 24 h”.
Consider `CC[C@H](C)[C@@H]1NC(=O)[C@H](CCCNC(=N)N)NC(=O)[C@H](CC(=O)O)NC(=O)[C@H](CCSC)NC(=O)[C@H](CCCCN)NC(=O)[C@H](CCCNC(=N)N)NC(=O)CNC(=O)[C@H](Cc2ccccc2)NC(=O)[C@@H](NC(=O)CNC(=O)[C@H](CO)NC(=O)CNC(=O)[C@H](CCC(N)=O)NC(=O)[C@@H](NC(=O)[C@H](CCSC)NC(=O)[C@H](CCCCN)NC(=O)[C@@H]2CCCN2C(=O)[C@@H](N)CO)C(C)C)CSSC[C@@H](C(=O)N[C@@H](CCCCN)C(=O)N[C@H](C(=O)N[C@@H](CC(C)C)C(=O)N[C@@H](CCCN=C(N)N)C(=O)N[C@@H](CCCN=C(N)N)C(=O)N[C@@H](Cc2cnc[nH]2)C(=O)O)C(C)C)NC(=O)CNC(=O)[C@H](CC(C)C)NC(=O)CNC(=O)[C@H](CO)NC(=O)[C@H](CO)NC(=O)[C@H](CO)NC(=O)[C@H](CO)NC1=O` [hBNP], for which the half-life in plasma in data set [1] is given as 22 min.
Consider `CC[C@H](C)[C@H](NC(=O)[C@H](CCCCN)NC(=O)[C@H](CO)NC(=O)[C@H](CC(=O)O)NC(=O)[C@@H](N)CO)C(=O)NCC(=O)N[C@@H](CC(=O)O)C(=O)NCC(=O)N[C@H]1CSSC[C@@H](C(=O)N[C@@H](CC(N)=O)C(=O)N[C@@H](CCCNC(=N)N)C(=O)N2CCC[C@H]2C(=O)N[C@H](C(=O)N[C@@H](CCC(N)=O)C(=O)N[C@@H](CC(N)=O)C(=O)N[C@@H](CCCNC(=N)N)C(=O)N2CCC[C@H]2C(=O)N[C@@H](CCCCN)C(=O)N[C@@H](CCCCN)C(=O)O)C(C)C)NC(=O)CNC(=O)[C@H](CC(C)C)NC(=O)CNC(=O)[C@H](CO)NC(=O)[C@H](C(C)C)NC(=O)[C@H](CO)NC(=O)CNC(=O)[C@H]([C@@H](C)CC)NC(=O)[C@H](Cc2c[nH]cn2)NC(=O)[C@H](CC(=O)O)NC(=O)[C@H](CC(C)C)NC(=O)[C@@H]2CCCN2C(=O)[C@H](CC(C)C)NC(=O)CNC(=O)[C@H](Cc2ccccc2)NC1=O` [TNPa] (H-SDSKIGDGCFGLPLDHIGSVSGLGCNRPVQNRPKK-OH; disulfide 9-25), for which the Emax at 10 µM in data set [3] (HEK293, read-out: cGMP production, % of the maximum response (compared with DNP, hANP, hBNP), at 10 μM) was under 20%. Moreover, the EC50 is over 10 µM in data set [3] (30 min at 37 °C, cGMP ALPHAscreen, three separate experiments in triplicate, read-out: hNPR-A EC50 (95% CI), potency to stimulate cGMP production); 2020 nM in data set [4] (30 min at 37 °C, three to five separate experiments in triplicate, read-out: rNPR-A EC50 (95% CI), potency to stimulate cGMP production); over 1000 nM in data set [4] (read-out: EC50 at rNPR-A).
